System: HIV-infected subjects
Test: Safety and tolerability (TEAEs, ECG, laboratory) after repeated oral administration, phase 2a study
Type: in vivo, human
Description: Participants were assigned to one of eight groups; each group (with one exception) included eight subjects receiving either ABX464 (n = 6) or the corresponding placebo (n = 2) according to a randomization code. […] In the present study with HIV-infected subjects, the first dose administered was 25 mg, given once or 3 times a day over a 2- to 3-week period. This initial dose was therefore considered safe for assessment of the safety and tolerability of ABX464 after repeated oral administrations in subjects infected by HIV and determination of the potential effect on the HIV viral load.
The final dosing protocol for each of the eight groups was as follows: group 1, 25 mg every 3 days for 2 to 3 weeks under fasted conditions; group 2, 25 mg once a day (q.d.) for 2 to 3 weeks under fasted conditions; group 3, 50 mg once a day for 2 to 3 weeks under fasted conditions; group 4, 50 mg 3 times a day (t.i.d.) for 4 weeks under fed conditions; group 5, 75 mg once a day for 2 weeks under fed conditions; group 6, 100 mg once a day for 2 to 3 weeks under fasted conditions; group 7, 150 mg every 3 days for 2 to 3 weeks under fed conditions; and group 8, 150 mg once a day for 2 weeks under fed conditions. Per the study protocol, the treatment period was defined as 2 weeks. […] The decision to proceed to the next highest dose was determined by the data and safety monitoring board after review of the laboratory safety data, vital signs, ECGs, and adverse event reports from the group receiving the current dose after 2 weeks of treatment.
Subjects were hospitalized from the day prior to the first dose to at least the morning of day 2. They were orally dosed with 25-mg capsules of ABX464 with 240 ml water under fed or fasted conditions. According to the group, subjects were dosed with 1, 2, 3, 4, or 6 capsules to deliver 25 mg, 50 mg, 75 mg, 100 mg, or 150 mg product, respectively, or the same number of placebo capsules.
Safety assessments and laboratory tests were carried out according to the schedules described in Table S4 for groups dosed every day, every 3 days, and 3 times a day. Follow-up visits were scheduled for 7 days after the last dose and subsequently once every week in order to assess the elimination of the main ABX464 metabolite and to assess the viral load. Follow-up visits were terminated when the virus load was within 0.5 log of the baseline value or after 3 follow-up visits, whichever came first. Prior to the statistical analyses, AEs were coded using the Medical Dictionary for Regulatory Activities (MedDRA dictionary; last available version) in order to be tabulated by system organ class (SOC) and preferred term (PT). The AEs were analyzed according to the treatment emergence phase from the first study drug administration on day 1 up to 48 h after the last study drug administration. The number and percentage of subjects with at least one TEAE were tabulated by SOC and PT for each group and dose. The number of occurrences of TEAEs was also analyzed in the same way by SOC and PT for each group and dose, by grade of severity for each group and dose, and by level of causality to the study drug for each group and dose.

[1] = Group 5 (n = 6), 75 mg q.d., fed, Mild
[2] = Group 5 (n = 6), 75 mg q.d., fed, Moderate
[3] = Group 6 (n = 6), 100 mg q.d., fasted, Mild
[4] = Group 6 (n = 6), 100 mg q.d., fasted, Moderate
[5] = Group 7 (n = 6), 150 mg every 3 days, fed, Mild

FC(F)(F)Oc1ccc(Nc2ccc3cccc(Cl)c3n2)cc1 [ABX464]
Subjects experiencing at least one TEAE: Arthralgia [1]: 0 (0.0) No. (%) | Subjects experiencing at least one TEAE: Back pain [1]: 0 (0.0) No. (%) | Subjects experiencing at least one TEAE: Diarrhea [1]: 1 (16.7) No. (%) | Subjects experiencing at least one TEAE: Flank pain [1]: 0 (0.0) No. (%) | Subjects experiencing at least one TEAE: Gastrointestinal disorders [1]: 5 (83.3) No. (%) | Subjects experiencing at least one TEAE: Headache [1]: 5 (83.3) No. (%) | Subjects experiencing at least one TEAE: Injury, poisoning, and procedural complications [1]: 0 (0.0) No. (%) | Subjects experiencing at least one TEAE: Musculoskeletal and connective tissue disorders [1]: 0 (0.0) No. (%) | Subjects experiencing at least one TEAE: Nausea [1]: 3 (50.0) No. (%) | Subjects experiencing at least one TEAE: Neck pain [1]: 0 (0.0) No. (%) | Subjects experiencing at least one TEAE: Nervous system disorders [1]: 5 (83.3) No. (%) | Subjects experiencing at least one TEAE: Pain in extremity [1]: 0 (0.0) No. (%) | Subjects experiencing at least one TEAE: Sciatica, back pain [1]: 0 (0.0) No. (%) | Subjects experiencing at least one TEAE: Skin abrasion [1]: 0 (0.0) No. (%) | Subjects experiencing at least one TEAE: Total [1]: 6 (100.0) No. (%) | Subjects experiencing at least one TEAE: Upper abdominal pain [1]: 0 (0.0) No. (%) | Subjects experiencing at least one TEAE: Vomiting [1]: 4 (66.7) No. (%) | Subjects experiencing at least one TEAE: Abdominal pain [2]: 0 (0.0) No. (%) | Subjects experiencing at least one TEAE: Arthralgia [2]: 0 (0.0) No. (%) | Subjects experiencing at least one TEAE: Back pain [2]: 0 (0.0) No. (%) | Subjects experiencing at least one TEAE: Diarrhea [2]: 0 (0.0) No. (%) | Subjects experiencing at least one TEAE: Flank pain [2]: 0 (0.0) No. (%) | Subjects experiencing at least one TEAE: Gastrointestinal disorders [2]: 1 (16.7) No. (%) | Subjects experiencing at least one TEAE: Headache [2]: 0 (0.0) No. (%) | Subjects experiencing at least one TEAE: Injury, poisoning, and procedural complications [2]: 0 (0.0) No. (%) | Subjects experiencing at least one TEAE: Musculoskeletal and connective tissue disorders [2]: 0 (0.0) No. (%) | Subjects experiencing at least one TEAE: Nausea [2]: 1 (16.7) No. (%) | Subjects experiencing at least one TEAE: Neck pain [2]: 0 (0.0) No. (%) | Subjects experiencing at least one TEAE: Nervous system disorders [2]: 0 (0.0) No. (%) | Subjects experiencing at least one TEAE: Pain in extremity [2]: 0 (0.0) No. (%) | Subjects experiencing at least one TEAE: Sciatica, back pain [2]: 0 (0.0) No. (%) | Subjects experiencing at least one TEAE: Skin abrasion [2]: 0 (0.0) No. (%) | Subjects experiencing at least one TEAE: Total [2]: 1 (16.7) No. (%) | Subjects experiencing at least one TEAE: Upper abdominal pain [2]: 0 (0.0) No. (%) | Subjects experiencing at least one TEAE: Vomiting [2]: 0 (0.0) No. (%) | Subjects experiencing at least one TEAE: Abdominal pain [3]: 0 (0.0) No. (%) | Subjects experiencing at least one TEAE: Arthralgia [3]: 0 (0.0) No. (%) | Subjects experiencing at least one TEAE: Back pain [3]: 0 (0.0) No. (%) | Subjects experiencing at least one TEAE: Diarrhea [3]: 0 (0.0) No. (%) | Subjects experiencing at least one TEAE: Flank pain [3]: 0 (0.0) No. (%) | Subjects experiencing at least one TEAE: Gastrointestinal disorders [3]: 2 (33.3) No. (%) | Subjects experiencing at least one TEAE: Headache [3]: 5 (83.3) No. (%) | Subjects experiencing at least one TEAE: Injury, poisoning, and procedural complications [3]: 0 (0.0) No. (%) | Subjects experiencing at least one TEAE: Musculoskeletal and connective tissue disorders [3]: 0 (0.0) No. (%) | Subjects experiencing at least one TEAE: Nausea [3]: 0 (0.0) No. (%) | Subjects experiencing at least one TEAE: Neck pain [3]: 0 (0.0) No. (%) | Subjects experiencing at least one TEAE: Nervous system disorders [3]: 5 (83.3) No. (%) | Subjects experiencing at least one TEAE: Pain in extremity [3]: 0 (0.0) No. (%) | Subjects experiencing at least one TEAE: Sciatica, back pain [3]: 0 (0.0) No. (%) | Subjects experiencing at least one TEAE: Skin abrasion [3]: 0 (0.0) No. (%) | Subjects experiencing at least one TEAE: Total [3]: 6 (100.0) No. (%) | Subjects experiencing at least one TEAE: Upper abdominal pain [3]: 2 (33.3) No. (%) | Subjects experiencing at least one TEAE: Vomiting [3]: 0 (0.0) No. (%) | Subjects experiencing at least one TEAE: Abdominal pain [4]: 0 (0.0) No. (%) | Subjects experiencing at least one TEAE: Arthralgia [4]: 0 (0.0) No. (%) | Subjects experiencing at least one TEAE: Back pain [4]: 0 (0.0) No. (%) | Subjects experiencing at least one TEAE: Diarrhea [4]: 0 (0.0) No. (%) | Subjects experiencing at least one TEAE: Flank pain [4]: 0 (0.0) No. (%) | Subjects experiencing at least one TEAE: Gastrointestinal disorders [4]: 1 (16.7) No. (%) | Subjects experiencing at least one TEAE: Headache [4]: 0 (0.0) No. (%) | Subjects experiencing at least one TEAE: Injury, poisoning, and procedural complications [4]: 0 (0.0) No. (%) | Subjects experiencing at least one TEAE: Musculoskeletal and connective tissue disorders [4]: 0 (0.0) No. (%) | Subjects experiencing at least one TEAE: Nausea [4]: 0 (0.0) No. (%) | Subjects experiencing at least one TEAE: Neck pain [4]: 0 (0.0) No. (%) | Subjects experiencing at least one TEAE: Nervous system disorders [4]: 0 (0.0) No. (%) | Subjects experiencing at least one TEAE: Pain in extremity [4]: 0 (0.0) No. (%) | Subjects experiencing at least one TEAE: Sciatica, back pain [4]: 0 (0.0) No. (%) | Subjects experiencing at least one TEAE: Skin abrasion [4]: 0 (0.0) No. (%) | Subjects experiencing at least one TEAE: Total [4]: 3 (50.0) No. (%) | Subjects experiencing at least one TEAE: Upper abdominal pain [4]: 1 (16.7) No. (%) | Subjects experiencing at least one TEAE: Vomiting [4]: 0 (0.0) No. (%) | Subjects experiencing at least one TEAE: Abdominal pain [5]: 0 (0.0) No. (%) | Subjects experiencing at least one TEAE: Arthralgia [5]: 1 (16.7) No. (%) | Subjects experiencing at least one TEAE: Back pain [5]: 0 (0.0) No. (%) | Subjects experiencing at least one TEAE: Diarrhea [5]: 0 (0.0) No. (%)

Reference: PMC5487684, “Safety, Pharmacokinetics, and Antiviral Activity of a Novel HIV Antiviral, ABX464, in Treatment-Naive HIV-Infected Subjects in a Phase 2 Randomized, Controlled Study” (Antimicrobial Agents and Chemotherapy, 2017)
